Results from US20260234630A1, “Methods for Treating Multiple Myeloma” (Celgene Corporation, priority 2022, published 2026).

Legend:
Type in all cases: cell-based
Aiolos at UHRF1 promoter = assay: ChIP-qPCR of Aiolos occupancy at UHRF1 gene; details: H929 cells, 1 μM POM, 24 hr
Description: FIG. 2A-2E. UHRF1 expression is positively regulated by Ikaros and Aiolos in IMiDs sensitive MM cells. (2A) Western blot analysis protein expression of UHRF1, Ikaros, Aiolos, ZFP91 and Cereblon expression in control [shLuciferase (shLuc)] and cereblon knockdown (shCRBN) H929 cells treated with DMSO and 1 μM POM for 3 days. GAPDH, loading control. Arrow head, UHRF1. (2B) qRT-PCR analysis of UHRF1 gene expression levels in cells as in (2A). Data was normalized to ACTB. Error bars represent the SEM of technical duplicates. *** P<0.001 (Two-tailed unpaired Student's t-test). […]
ChIP-qPCR was performed using ChIP-IT Express Enzymatic kit (Active Motif) according to the manufacture manual with some modifications. […] DNA was purified using a PCR purification kit (Qiagen) and analyzed by qPCR using the Power SYBR Green PCR Master Mix.
Procedures afterward were performed according to the manufacture manual. Eluted DNA was purified using a PCR purification kit (Qiagen) and analyzed by quantitative real-time PCR on the Viia 7 Real Time PCR System using the Power SYBR Green PCR master mix (Applied Biosystems). Statistical differences were calculated using a […] unpaired Student's t-test.

UHRF1 = assay: Western blot of UHRF1 protein in MM cells
Description: (§1) FIG. 1A-1F. Down regulation of UHRF1 transcription by IMiDs correlates with drug sensitivity of multiple myeloma. (1A) Volcano plot of protein expression changes determined by mass spectrometry in H929 cells at 24 hr of treatment with CC-220 (0.1 μM) or DMSO control. X axis, Log2fold change (FC); Y axis, significance,-log 10 [p-value]. […] (1B) Volcano plot of gene expression changes determined by Affymetrix microarray in H929 cells treated with POM (1 μM) or DMSO for 24 hr. X axis, Log2fold change (FC); Y axis, significance,-log 10 [p-value], n=2 technical replicates). […] (1C) Western blot analysis protein expression of UHRF1, Ikaros, Aiolos and ZFP91 in H929 cells treated with 1 μM POM for indicated time. (1D) qRT-PCR analysis of UHRF1 gene expression levels in cells as in (1C). Error bars represent the SEM from duplicate measurements. (1E) Western blot analysis protein expression of UHRF1 and indicated proteins in MM cells treated with DMSO (−) or 1 μM POM (+) for 3 days. GAPDH serves as a loading control. (1F) Thymidine incorporation of various MM cell lines treated with indicated dose of POM for 3 days. Error bars represent the SEM from technical replicates.
(§2) FIG. 2A-2E. UHRF1 expression is positively regulated by Ikaros and Aiolos in IMiDs sensitive MM cells. (2A) Western blot analysis protein expression of UHRF1, Ikaros, Aiolos, ZFP91 and Cereblon expression in control [shLuciferase (shLuc)] and cereblon knockdown (shCRBN) H929 cells treated with DMSO and 1 μM POM for 3 days. GAPDH, loading control. Arrow head, UHRF1. (2B) qRT-PCR analysis of UHRF1 gene expression levels in cells as in (2A). Data was normalized to ACTB. Error bars represent the SEM of technical duplicates. *** P<0.001 (Two-tailed unpaired Student's t-test). (2C) Western blot analysis protein expression of UHRF1, Ikaros and Aiolos in stably transduced H929 cells after Dox induction (0, 10, 50 or 100 ng/ml) for 3 days of non-target shRNA (shNT) or shRNAs targeting Ikaros (shIKZF1) or Aiolos (shIKZF3). (2D) qRT-PCR analysis of UHRF1 gene expression levels in cells as in (2C). Shown are cells induced with Dox (50 ng/ml) for 3 days. Data was normalized to GAPDH. Error bars represent the SEM of technical duplicates. *P<0.05, ** P<0.01, *** P<0.001, **** P<0.0001 (Two-tailed unpaired Student's t-test). (2E) ChIP-qPCR analysis of the occupancy Aiolos (upper panel) or H3K27ac (lower panel) occupancy at transcription star site (TSS), gene body (+7 kb) and gene end (GE) of UHRF1 gene in H929, MM1.S or RPMI 8226 cells treated with DMSO or 1 μM POM for 24 hr. ChIP with control rabbit IgG (IgG) serves as a negative control. Error bars represent the SEM of technical triplicates. * P<0.05, ** P<0.01, **** P<0.0001 (Two-tailed unpaired Student's t-test).
FIG. 6A-6D. […]

UHRF1 mRNA = assay: qRT-PCR of UHRF1 gene expression in MM cells
Description: as §1, §2
FIG. 6A-6D. […] (6A) Immunocytochemistry assay of UHRF1 in H929 cells treated with DMSO or 1 μM POM for 48 hrs. (6B) qRT-PCR analysis of UHRF1 gene expression levels in indicated MM cells treated with indicated doses of POM for 3 days. Data was normalized to ACTB. Error bars represent the SEM from duplicate measurements. * P<0.05, ** P<0.01, *** P<0.001, **** P<0.0001 (Two-tailed Student's t-test). […]
Total RNA was extracted by RNeasy Mini Kit (Qiagen) and reverse transcribed by iScrip cDNA Synthesis Kit (Bio-rad). Quantitative real-time PCR (qPCR) was conducted on a VillA 7 System using the Power SYBR Green PCR Master Mix (Applied Biosystems). Gene expression values were calculated by normalization to Actb using the comparative CT method.

[1] = H929 cells, POM 1 μM, time course
[2] = shCRBN vs shLuc H929 cells, 1 μM POM, 3 days

## Nc1cccc2c1C(=O)N(C1CCC(=O)NC1=O)C2=O (stereo not drawn) [POM, pomalidomide]
Aiolos at UHRF1 promoter
  UHRF1 promoter occupancy of Aiolos: drastically reduced
UHRF1; [1]
  time to profound reduction of UHRF1 protein level: ≤ 48 h
UHRF1; MC/CAR and RPMI 8226 cells, 1 μM POM, 3 days
  UHRF1 protein levels: without affecting
UHRF1; sensitive cell lines H929, MM1.S, DF15 and U266, 1 μM POM, 72 hours
  UHRF1 expression level: downregulated
UHRF1; [2]
  downregulation of UHRF1 protein by POM under cereblon knockdown: rescued
UHRF1 mRNA; H929, MM1.S and U266 cells, indicated doses of POM, 3 days
  UHRF1 mRNA: dose dependent downregulation
UHRF1 mRNA; [1]
  time to profound reduction of UHRF1 mRNA level: up to 24 hours
UHRF1 mRNA; drug sensitive MM (FIG. 6 title)
  UHRF1 gene expression: downregulated
UHRF1 mRNA; [2]
  downregulation of UHRF1 mRNA by POM under cereblon knockdown: rescue
